The test system of one assay is Bean (BN). Put plainly: Post-emergence herbicide test. Type of assay: in vivo, Phaseolus vulgaris var. Black Valentine. To be noted: Phaseolus vulgaris, post-emergence, 336 h, two weeks after treatment; for pest or weed control at 4483.4 g/ha: 4 lb/acre. A digest of the protocol:
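Snapbean (Phaseolus vulgaris var. Black Valentine) was tested post-emergence. Four seeds were sown in 3' plastic pots of potting soil at a depth equal to the seed diameter, then sub-irrigated in greenhouse trays. Planting dates were staggered so plants were sprayed once primary leaves had expanded, with the growing point at the primary leaf nodes.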

In assay [1] the test system is Barnyard grass (BG). Put plainly: Post-emergence herbicide test. Type of assay: in vivo. To be noted: Echinochloa crus-galli, 336 h, two weeks after treatment; for pest or weed control at 4483.4 g/ha: 4 lb/acre. A digest of the protocol: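 Greenhouse pot-grown barnyard grass seedlings sprayed post-emergence at 8 lbs active compound per acre (some at 4 lbs/acre) in 38 gallons per acre, then sub-irrigated. Injury or control rated visually two weeks after treatment.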

Assay [2] concerns Johnson grass (JG). Description: Post-emergence herbicide test. As to conditions: Sorghum halepense, 336 h, two weeks after treatment; for pest or weed control at 4483.4 g/ha: 4 lb/acre. The format is in vivo, Sorgum helepense. A digest of the protocol:
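Greenhouse pot-grown seedlings sprayed post-emergence at 8 lbs compound per acre (some at 4 lbs/acre) in 38 gallons per acre spray volume. Sub-irrigated thereafter. Injury/control rated visually two weeks after treatment.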

Assay [3] relates to Amaranth pigweed (PW). Description: Post-emergence herbicide test. The format is in vivo, Amaranthus retroflexus. To be noted: 336 h, two weeks after treatment; for pest or weed control at 2241.7 g/ha: 2 lb/acre; for pest or weed control at 4483.4 g/ha: 4 lb/acre. As to the method: Amaranth pigweed (PW)--Amaranthus retroflexus
(§1) All crop and weed species were planted individually in 3' plastic pots containing potting soil. Four seeds each of corn, cotton, and snapbeans were seeded to a depth equal to the diameter of the seed. All other species were surface seeded and sprinkled with screened soil in an amount sufficient to cover the seed. Immediately after planting, all pots were watered by sub-irrigation in greenhouse trays. Pots for the pre-emergence phase were seeded one day before treatment.
Planting dates for the post-emergence phase were varied so that all seedlings would reach the desired stage of development simultaneously. The proper stage of seedling development for treatment in the post-emergence phase is as follows:
Pigweed and turnips: 1 or 2 true leaves above visible cotyledons.
(§2) Compounds were tested at rates of application equivalent to 8 lbs. of actual compound per acre in a spray volume of 38 gallons per acre. Spray hood constants required to deliver the above volume are as follows:
(§3) Formulations for spray applications were prepared in 50 ml volumes with the following three components:
(§4) Formulations for the 4 lbs/acre rate were prepared by adjusting the amount of active ingredient accordingly.
(§5) Spray applications were made in a hood containing a removable belt and fixed spray nozzle. For passage through the spray hood, one pot of each specie (pre-emergence phase) was placed on the rear half of the flat. Treatments were removed to the greenhouse after spraying. Watering during the observation period was done only by sub-irrigation.
(§6) Two weeks after treatment, pre- and post-emergence injury or control was visually rated, and the results were as shown in the following tables. Pre-emergence data are provided in TABLE III and post-emergence data are provided in TABLE IV, for compounds having the formula illustrated in TABLE I. Correspondingly, pre-emergence and post-emergence data, respectively, are set forth in TABLES V AND VI, for compounds having the formula illustrated in TABLE II.

Assay [4] relates to Turnip (TP). Description: Post-emergence herbicide test. Type of assay: in vivo, Brassica sp. As to conditions: Brassica rapa, post-emergence, 336 h, two weeks after treatment; for pest or weed control at 2241.7 g/ha: 2 lb/acre; for pest or weed control at 4483.4 g/ha: 4 lb/acre. A digest of the protocol:
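A greenhouse post-emergence herbicide test on turnip. Seeds were sown on the surface of potting soil in 3' plastic pots, lightly covered with screened soil and watered from below. Planting was timed so seedlings had 1 or 2 true leaves above the cotyledons at spraying, done in a hood with a fixed nozzle. Control or injury was scored by eye after two weeks.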

In assay [5] the test system is Corn (CN). Put plainly: Post-emergence herbicide test. As to conditions: Zea mays, 336 h, two weeks after treatment; for pest or weed control at 4483.4 g/ha: 4 lb/acre. The format is in vivo. A digest of the protocol: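 Greenhouse seedlings grown in potting soil and sprayed post-emergence at 8 lbs compound/acre (formulations also made for 4 lbs/acre) in 38 gallons/acre spray volume. Watering by sub-irrigation only. Injury or control rated visually two weeks after treatment.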

Assay [6] deals with Cotton (CT). Description: Post-emergence herbicide test. The format is in vivo, Gossypium hirsutum var. DPL smooth leaf. As to conditions: Gossypium hirsutum, post-emergence, 336 h, two weeks after treatment; for pest or weed control at 4483.4 g/ha: 4 lb/acre. A digest of the protocol: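 Cotton (Gossypium hirsutum var. DPL smooth leaf) was grown in 3' plastic pots of potting soil, four seeds per pot, planted at a depth equal to the seed diameter and watered by sub-irrigation. At the stage of expanded cotyledons with the first true leaf 1' long, plants were sprayed post-emergence in a hood with a fixed nozzle over a moving belt. Percent control was rated visually two weeks later.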

Assay [7] relates to Crabgrass (CG). Description: Post-emergence herbicide test. Type of assay: in vivo, Digitaria sanquinalis. To be noted: Digitaria sanguinalis, post-emergence, 336 h, two weeks after treatment; for pest or weed control at 4483.4 g/ha: 4 lb/acre. A digest of the protocol:
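Crabgrass (Digitaria sanquinalis) was surface seeded individually in 3' plastic pots of potting soil, covered with screened soil, and watered by sub-irrigation in greenhouse trays. Planting was staggered so seedlings reached the target stage together. Post-emergence sprays were applied in a hood with a removable belt and fixed nozzle, and control was visually rated two weeks after treatment.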

Assay [8] relates to Johnson grass (JG). Description: Pre-emergence herbicide test. The format is in vivo, Sorgum helepense. As to conditions: Sorghum halepense, 336 h, 4 lb/acre, two weeks after treatment. A digest of the protocol: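 Pots seeded one day before spraying; compound applied pre-emergence at 8 lbs/acre (or 4 lbs/acre) in 38 gallons/acre spray volume. Sub-irrigated in greenhouse; injury/control rated visually two weeks after treatment.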

Assay [9] concerns Cotton (CT). Description: Pre-emergence herbicide test. The format is in vivo, Gossypium hirsutum var. DPL smooth leaf. To be noted: Gossypium hirsutum, 336 h, 4 lb/acre, two weeks after treatment. As to the method: Cotton (CT)--Gossypium hirsutum var. DPL smooth leaf
as §1, §2, §3, §4, §5, §6

The subject of assay [10] is Turnip (TP). Put plainly: Pre-emergence herbicide test. The format is in vivo, Brassica sp. To be noted: Brassica rapa, pre-emergence, 336 h; 4 lb/acre; two weeks after treatment. A digest of the protocol: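 Turnip (Brassica sp.) seeds were surface sown in 3' plastic pots of potting soil, covered with a thin layer of screened soil, and sub-irrigated in greenhouse trays. Pots were seeded one day ahead of treatment, sprayed pre-emergence under a hood with a fixed nozzle and moving belt, then kept in the greenhouse.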

In assay [11] the test system is Corn (CN). Description: Pre-emergence herbicide test. Type of assay: in vivo. As to conditions: Zea mays, 336 h, 4 lb/acre, two weeks after treatment. As for the experimental part: as §1, §2, §3, §4, §5, §6
Assay [12] relates to Crabgrass (CG). Put plainly: Pre-emergence herbicide test. The format is in vivo, Digitaria sanquinalis. To be noted: Digitaria sanguinalis, pre-emergence, 336 h; 4 lb/acre; two weeks after treatment. A digest of the protocol: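 Crabgrass (Digitaria sanquinalis) was surface seeded in 3' plastic pots of potting soil, covered with screened soil, and watered by sub-irrigation in greenhouse trays. Pots were seeded one day before spraying in a hood with a moving belt and fixed nozzle. Plants stayed in the greenhouse on sub-irrigation, and pre-emergence control was rated visually two weeks after treatment.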

Assay [13] relates to Barnyard grass (BG). Put plainly: Pre-emergence herbicide test. To be noted: Echinochloa crus-galli, 336 h, 4 lb/acre, two weeks after treatment. Type of assay: in vivo. The procedure, abridged: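 Barnyard grass surface-seeded in potting soil and sprayed pre-emergence one day after seeding, at 8 or 4 lb compound/acre in 38 gal/acre spray volume. Pots kept in greenhouse with sub-irrigation only; injury or control rated visually two weeks after treatment.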

The subject of assay [14] is Amaranth pigweed (PW). Description: Pre-emergence herbicide test. Type of assay: in vivo, Amaranthus retroflexus. To be noted: 336 h, 4 lb/acre, two weeks after treatment. As to the method:
as §1, §2, §3, §4, §5, §6

What is called pest or weed control is how far the test organism was held down. A high value points to a strong effect. As to `CNC(=O)Nc1nnc(SCCc2ccccc2)s1` [Example 53], the pest or weed control at 4483.4 g/ha with Bean (BN) stood at 100%; with Barnyard grass (BG) [1] it was 20%; in the assay with Johnson grass (JG) [2], 30%; in the assay with Amaranth pigweed (PW) [3], 90%; in the assay on Turnip (TP) [4], 90%; with Corn (CN) [5], 100%. The pest or weed control at 4483.4 g/ha with Cotton (CT) [6] worked out at 100%; with Crabgrass (CG) [7], 60%. The results for the pest or weed control at 2241.7 g/ha with Amaranth pigweed (PW) [3] and with Turnip (TP) [4] were 90% and 70%, respectively.

`CCCC(C)c1nnc(NC(=O)NC)s1` (stereo not shown) [Example 83]: the pest or weed control at 4483.4 g/ha was 40% in the assay on Bean (BN); 90% in the assay on Turnip (TP) [4]; 60% in the assay with Johnson grass (JG) [8]; 10% in the assay on Cotton (CT) [9]; 10% in the assay on Turnip (TP) [10]; 10% with Corn (CN) [11]. The pest or weed control at 4483.4 g/ha with Crabgrass (CG) [12] turned out to be 90%; with Barnyard grass (BG) [13], 50%; in the assay on Cotton (CT) [6], 10%; in the assay on Amaranth pigweed (PW) [14], 80%; in the assay with Crabgrass (CG) [7] it was 10%.

Take `CCC(C)=CCSc1nnc(NC(=O)NC)s1` [Example 50]: the pest or weed control at 4483.4 g/ha in the assay on Bean (BN) is 100%; in the assay on Barnyard grass (BG) [1], 20%; with Johnson grass (JG) [2], 30%; in the assay with Amaranth pigweed (PW) [3] it was 90%; in the assay with Turnip (TP) [4] it was 80%; in the assay with Corn (CN) [5], 30%. For the same compound, the pest or weed control at 4483.4 g/ha in the assay on Cotton (CT) [6] is 80%; with Crabgrass (CG) [7] it was 50%. In addition, the pest or weed control at 2241.7 g/ha amounted to 90% in the assay on Amaranth pigweed (PW) [3] and 60% in the assay on Turnip (TP) [4].

As to `CNC(=O)Nc1nnc(SCc2ccc([N+](=O)[O-])cc2)s1` [Example 55], the pest or weed control at 4483.4 g/ha is 100% in the assay with Bean (BN); 20% in the assay on Barnyard grass (BG) [1]; 30% with Johnson grass (JG) [2]; 90% with Amaranth pigweed (PW) [3]; 90% in the assay on Turnip (TP) [4]; 20% in the assay on Corn (CN) [5]. In addition, the pest or weed control at 4483.4 g/ha in the assay with Cotton (CT) [6] was 50%; in the assay with Crabgrass (CG) [7], 40%. The pest or weed control at 2241.7 g/ha in the assay with Amaranth pigweed (PW) [3] turned out to be 90%; in the assay with Turnip (TP) [4], 60%.

For the compound `CNC(=O)Nc1nnc(SCCC#N)s1` [Example 52], the pest or weed control at 4483.4 g/ha was determined as 100% with Bean (BN); 20% with Barnyard grass (BG) [1]; 20% with Johnson grass (JG) [2]; 80% in the assay on Amaranth pigweed (PW) [3]; 80% with Turnip (TP) [4]; 100% in the assay on Corn (CN) [5]. Further, the pest or weed control at 4483.4 g/ha in the assay with Cotton (CT) [6] came to 100%; in the assay with Crabgrass (CG) [7] it was 70%.

Take `CNC(=O)Nc1nnc(SCCC(C)C)s1` [Example 51]: the pest or weed control at 4483.4 g/ha in the assay on Bean (BN) is 100%; with Barnyard grass (BG) [1] it was 70%; in the assay with Johnson grass (JG) [2] it was 40%; with Amaranth pigweed (PW) [3], 90%; in the assay on Turnip (TP) [4], 90%; in the assay on Corn (CN) [5], 50%. Further, the results for the pest or weed control at 4483.4 g/ha in the assay with Cotton (CT) [6] and in the assay with Crabgrass (CG) [7] were 100% and 60%, respectively. For the same compound, the pest or weed control at 2241.7 g/ha came to 90% with Amaranth pigweed (PW) [3] and 80% with Turnip (TP) [4].

In the case of `CNC(=O)Nc1nnc(C(F)(F)Cl)s1` [Example 57], the pest or weed control at 8966.8 g/ha with Bean (BN) (8 lb/acre) stood at 100%; with Barnyard grass (BG) [1] (8 lb/acre), 40%; in the assay on Johnson grass (JG) [2] (8 lb/acre) it was 40%; with Amaranth pigweed (PW) [3] (8 lb/acre), 90%; in the assay with Turnip (TP) [4] (8 lb/acre), 100%; in the assay with Corn (CN) [5] (8 lb/acre), 40%. Also, the results for the pest or weed control at 8966.8 g/ha in the assay with Cotton (CT) [6] (8 lb/acre) and in the assay on Crabgrass (CG) [7] (8 lb/acre) were 90% and 60%, respectively.

(Values after US4175081A, “5-Substituted thiadiazole ureas” (priority 1977, dated 1979).)
